Values of other authors, collected in patent publication US20110250132A1, “LIPOIC ACID METABOLITE: USEFUL FOR DRUG CARRIER, NANOPARTICLE CONJUGATE, IMAGING AND HYPERTHERMIA THERAPY” (priority 2010, published 2011).
Values belong to the molecule of their own block, whether it stands above or below them.

Assays:
[1] = system: insulin-resistant rat skeletal muscle
cataracts = conditions: rats
[2] = accumulates in all neuronal cell types
[3] = reduced form with two —SH groups

Structure (SMILES): O=C(O)CCCC[C@@H]1CCSS1 [R-alpha-lipoic acid]
enhancing insulin-stimulated glucose transport and metabolism [1]: more effective than S-alpha-lipoic acid | preventing cataracts (cataracts): more effective than racemic alpha-lipoic acid and S-alpha-lipoic acid

blood-brain barrier crossing [2]: readily crosses the blood-brain barrier
Structure (SMILES): O=C(O)CCCCC1CCSS1 (stereo not drawn) [Alpha-lipoic acid]
preventing iron accumulation (lens epithelial cells): beneficial effects

oxidation potential [3]: −0.29 v
Structure (SMILES): O=C(O)CCCC[C@@H](S)CCS (racemic) [DHLA, dihydrolipoic acid]
